Tests used:
bovine serum albumin = bovine serum albumin (Bos taurus, UniProt P02769); assay: Glycation of bovine serum albumin with D-ribose, AGE fluorescence (Experiment 1); type: biochemical
Method: The glycation was evaluated by measuring the fluorescence of the AGEs at λem.=440 nm emitted by each sample after excitation at λex.=370 nm. The inhibition of glycation was visualized by the decrease in fluorescence compared with the sample treated with sugar alone.

[1] = system: human hair proteins (keratins); assay: Glycation of isolated human hair proteins (keratins) with ribose, glycation index (Experiment 2); type: biochemical; conditions: 50 mM ribose, 50° C., 14 days
Method: The glycation reaction was modelled in vitro in a biochemical model using human hair proteins (keratins) as a support for glycation with ribose. The test system consisted of isolated hair, incubated in a phosphate buffer (0.2M, pH=7.4) containing 50 mM of ribose (origin: Sigma). […] The assembly was incubated at 50° C. in the absence of light and air for 14 days. Control samples, incubated in the presence and absence of ribose, were tested in parallel. After incubation for 14 days, the incubation media were removed and the hair was washed with a solution containing 10 μM of guanidium chloride and then in water of MilliQ grade in order to remove all trace of free ribose. The hair was then placed in a solution containing 50% (v/v) of ethanol and 50 mM of DTT for 15 minutes at 37° C. After washing, the samples were placed in a solution containing 10 mM of 5,5′-dithiobis-2-nitrobenzoic acid. The absorbance relating to the free […] residues was measured at 415 nm. The samples were then washed in a 50% (v/v) ethanol solution and then heated for 30 minutes at 100° C. in a 2M hydrazine monohydrate solution (pH 9.4). After addition of a 1 mg/ml solution of phenylhydrazine in a 40% (v/v) acetic acid solution, the samples were incubated for [lacuna] 60° C. and the absorbance relating to the glycated proteins was measured at 390 nm. For each sample, the glycation index was evaluated by the ratio between the absorbance at 390 nm and the absorbance at 415 nm. [formula] The groups of data (control group and treated groups) were processed by means of a variance analysis (ANOVA), followed by a Dunett test.

Sequence of bovine serum albumin (P02769 25-607): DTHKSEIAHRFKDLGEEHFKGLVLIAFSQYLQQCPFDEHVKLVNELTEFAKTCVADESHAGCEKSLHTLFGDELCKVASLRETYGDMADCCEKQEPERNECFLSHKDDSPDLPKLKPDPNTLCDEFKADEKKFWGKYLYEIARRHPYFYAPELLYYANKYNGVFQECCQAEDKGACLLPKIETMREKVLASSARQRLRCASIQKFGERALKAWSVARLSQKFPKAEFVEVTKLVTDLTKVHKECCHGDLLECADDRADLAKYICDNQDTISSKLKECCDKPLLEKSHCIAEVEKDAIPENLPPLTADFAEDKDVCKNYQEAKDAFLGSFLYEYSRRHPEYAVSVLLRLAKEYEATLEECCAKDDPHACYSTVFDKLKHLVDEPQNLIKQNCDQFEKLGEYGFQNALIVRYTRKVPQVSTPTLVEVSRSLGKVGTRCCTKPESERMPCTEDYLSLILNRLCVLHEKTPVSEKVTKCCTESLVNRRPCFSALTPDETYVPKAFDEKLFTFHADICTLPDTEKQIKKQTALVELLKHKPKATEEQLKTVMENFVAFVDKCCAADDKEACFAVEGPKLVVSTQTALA

Oc1ccc(C=Cc2cc(O)cc(O)c2)cc1 [resveratrol, 3,5,4′-trihydroxystilbene] was tested, and the inhibition at 1 µM (bovine serum albumin) was 17%, the inhibition at 10 µM (bovine serum albumin) was 29.8% and the “% Inhibition” value ([1]; resveratrol 10^−4 M) was 80%. For the same molecule, the “% Inhibition” value ([1]; resveratrol 10^−5 M) was 51%, the “% Inhibition” value ([1]; resveratrol 10^−6 M) was 59% and the “% Inhibition” value ([1]; resveratrol 10^−7 M) was 45%.

— patent publication US6521669B1, “Hydroxystilbene compounds for reducing/inhibiting protein glycation” (Societe L'Oreal S.A., priority 1999, dated 2003)
